Test results: patent US11472812B2, “Anti-cancer compounds targeting Ral GTPases and methods of using the same” (The Regents of the University of Colorado, a body corporate, priority 2014, dated 2022)
Entries after “also recorded” stand apart in the source; their conditions may differ.

How the values were obtained:
[1] = test system: H2122 human lung cancer cells; assay: H2122 xenograft tumor growth; type: in vivo, nude mice; details: i.p. daily except weekends, initiated 24 h after inoculation; RBC8 50 mg/kg/d; BQU57 and BQU85 5, 10, 20, and 50 mg/kg/d
Method: We next determined compound entry into tumor tissue. To do so, athymic nude mice (Ncr nu/nu; National Cancer Institute, Fredrick, Md.) were received at 5 to 6 weeks of age and were allowed to acclimate for 2 weeks in sterile micro isolator cages with constant temperature and humidity. Mice had free access to food and water. H2122 cells in log-phase growth were harvested on the day of use. Cells were suspended in un-supplemented RPMI 1640 medium and 0.1 mL (2×10^5 cells) was injected s.c. four sites per mice. For H358 xenografts, cells (5×10^6) were mixed with matrigel (20% final concentration) and 0.1 mL was inoculated s.c. per site. After cell inoculation, mice were monitored daily, weighed twice weekly and caliper measurements begun when tumors visible. Tumor volume was calculated by (L×W2)/2, where L is longer measurement of tumor and W is the smaller tumor measurement. Drug treatment started the day after inoculation. Compounds were dissolved in DMSO and injected i.p. daily except weekends at 10/20/50 mg/kg. […] The effect of the Ral inhibitors on xenograft tumor growth was then tested in nude mice. Mice were inoculated subcutaneously with H2122 human lung cancer cells and treated intraperitoneally with 50 mg/kg/d (except weekends) of RBC8 24 h post inoculation.

[2] = test system: H2122 human lung cancer cells; assay: Cellular uptake, LC/MS-MS of cell lysates; type: in vitro ADME; details: 10 μM, 1-60 min
Method: To quantitate how well the test compounds get into cells, H2122 human lung cancer cells were seeded at 3×10^5 cells per well in 6-well plates and let sit for 16 h. Compounds (10 μM) were individually dosed in triplicate; cells were then collected into 500 μl ice-cold ACN:MeOH:H2O (1:1:1) at different time points (1, 5, 15, 30 and 60 min). Drug concentrations in cell lysates were then determined using LC/MS-MS methods as described with respect to the pharmacokinetic and pharmacodynamic studies in mice, described in detail in Example 5, below.

Structure (SMILES): Cn1nc(-c2ccccc2)c2c1OC(N)=C(C#N)C2c1ccc(OC(F)(F)F)cc1 (centres unmarked) [BQU85, 6-amino-1-methyl-3-phenyl-4-(4-(trifluoromethoxy)phenyl)-1,4-dihydropyrano[2,3-c]pyrazole-5-carbonitrile]
- xenograft tumor growth inhibition [1]: dose-dependent growth inhibition effects were observed; also recorded: inhibited xenograft tumor growth
- cellular uptake [2]: readily get into cells
